According to PubChem BioAssay AID1918943 (Molecular Pharmacology Branch, DTP, NCI, 2023):
“And” between values parts separate entries of the source, which are not always exact repeats. Equal entries are not always repeated. Each block holds one compound with its values, some of them ahead of it.

Test system: 855422-203-R-J1-PDC complex spheroid viability
Test: Anticancer human tumor 855422-203-R-J1-PDC patient-derived bladder carcinoma cell line growth inhibition
Conditions: for viability, T/C: stronger effect = lower value
Procedure, shortened: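 Complex spheroids of tumor cells with HUVEC and human MSCs, exposed to iadademstat combined with other agents. Each agent tested in half-log steps from near clinical Cmax (else 10 microM top), DMSO ≤0.25%.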

[1] = curve of first compound, second compound 0.1 µM
[2] = curve of first compound, second compound 0.316 µM
[3] = curve of first compound, second compound 1 µM
[4] = curve of first compound, second compound 3.16 µM
[5] = curve of first compound, second compound 10 µM
[6] = second compound 0.1 µM, first compound 0.000316 µM
[7] = second compound 0.1 µM, first compound 0.001 µM
[8] = second compound 0.1 µM, first compound 0.00316 µM
[9] = second compound 0.1 µM, first compound 0.01 µM
[10] = second compound 0.1 µM, first compound 0.0316 µM
[11] = second compound 0.1 µM, first compound 0.1 µM
[12] = second compound 0.316 µM, first compound 0.000316 µM
[13] = second compound 0.316 µM, first compound 0.001 µM
[14] = second compound 0.316 µM, first compound 0.00316 µM
[15] = second compound 0.316 µM, first compound 0.01 µM
[16] = second compound 0.316 µM, first compound 0.0316 µM
[17] = second compound 0.316 µM, first compound 0.1 µM
[18] = second compound 1 µM, first compound 0.000316 µM
[19] = second compound 1 µM, first compound 0.001 µM
[20] = second compound 1 µM, first compound 0.00316 µM
[21] = second compound 1 µM, first compound 0.01 µM
[22] = second compound 1 µM, first compound 0.0316 µM
[23] = second compound 1 µM, first compound 0.1 µM
[24] = second compound 3.16 µM, first compound 0.000316 µM
[25] = second compound 3.16 µM, first compound 0.001 µM
[26] = second compound 3.16 µM, first compound 0.00316 µM
[27] = second compound 3.16 µM, first compound 0.01 µM
[28] = second compound 3.16 µM, first compound 0.0316 µM
[29] = second compound 3.16 µM, first compound 0.1 µM
[30] = second compound 10 µM, first compound 0.000316 µM
[31] = second compound 10 µM, first compound 0.001 µM
[32] = second compound 10 µM, first compound 0.00316 µM
[33] = second compound 10 µM, first compound 0.01 µM
[34] = second compound 10 µM, first compound 0.0316 µM
[35] = second compound 10 µM, first compound 0.1 µM
[36] = second compound 0.1 µM, first compound 0.316 µM
[37] = second compound 0.1 µM, first compound 1 µM
[38] = second compound 0.1 µM, first compound 3.16 µM
[39] = second compound 0.1 µM, first compound 10 µM
[40] = second compound 0.316 µM, first compound 0.316 µM
[41] = second compound 0.316 µM, first compound 1 µM
[42] = second compound 0.316 µM, first compound 3.16 µM
[43] = second compound 0.316 µM, first compound 10 µM
[44] = second compound 1 µM, first compound 0.316 µM
[45] = second compound 1 µM, first compound 1 µM
[46] = second compound 1 µM, first compound 3.16 µM
[47] = second compound 1 µM, first compound 10 µM
[48] = second compound 3.16 µM, first compound 0.316 µM
[49] = second compound 3.16 µM, first compound 1 µM
[50] = second compound 3.16 µM, first compound 3.16 µM
[51] = second compound 3.16 µM, first compound 10 µM
[52] = second compound 10 µM, first compound 0.316 µM
[53] = second compound 10 µM, first compound 1 µM
[54] = second compound 10 µM, first compound 3.16 µM
[55] = second compound 10 µM, first compound 10 µM
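Note: drug exposure lasted 7 days starting on day 3 after seeding.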
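Throughout, for viability, T/C: luminescence viability as percent of DMSO vehicle wells = 100%.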

SMILES: CC(C)CC(NC(=O)C(Cc1ccccc1)NC(=O)c1cnccn1)B(O)O (stereo unspecified) + NC1CCC(NC2CC2c2ccccc2)CC1
- IC50 [1]: 0.527 nM
- IC50 [2]: 0.428 nM
- IC50 [3]: 0.484 nM
- IC50 [4]: 0.498 nM
- IC50 [5]: 0.463 nM
- viability, T/C [6]: 88%
- viability, T/C [7]: 2.43%
- viability, T/C [8]: 0.03%
- viability, T/C [9]: 0.01%
- viability, T/C [10]: 0.02%
- viability, T/C [11]: 0.1%
- viability, T/C [12]: 67.2%
- viability, T/C [13]: 2.02%
- viability, T/C [14]: 0.02%
- viability, T/C [15]: 1.84%
- viability, T/C [16]: 0.01%
- viability, T/C [17]: 1.34%
- viability, T/C [18]: 78.2%
- viability, T/C [19]: 1.83%
- viability, T/C [20]: 0.03%
- viability, T/C [21]: 0.01%
- viability, T/C [22]: 0.01%
- viability, T/C [23]: 2.03%
- viability, T/C [24]: 81.7%
- viability, T/C [25]: 1.37%
- viability, T/C [26]: 0.09%
- viability, T/C [27]: 0.01%
- viability, T/C [28]: 0.02%
- viability, T/C [29]: 0.05%
- viability, T/C [30]: 74.6%
- viability, T/C [31]: 0.29%
- viability, T/C [32]: 0.05%
- viability, T/C [33]: 0.08%
- viability, T/C [34]: 0.12%
- viability, T/C [35]: 0.14%

- IC50 (curve of compound): > 300 nM
SMILES: Nc1ncn(C2CC(O)C(CO)S2)c(=O)n1 (stereo unspecified)
- viability, T/C (compound 0.000949 µM): 106% and 93.8%
- viability, T/C (compound 0.003 µM): 91.9% and 98.4%
- viability, T/C (compound 0.00949 µM): 88.5% and 95.2%
- viability, T/C (compound 0.03 µM): 84.7% and 98%
- viability, T/C (compound 0.0949 µM): 82.8% and 102%
- viability, T/C (compound 0.3 µM): 79.9% and 83.6%

SMILES: CC(C)CC(NC(=O)CNC(=O)c1cc(Cl)ccc1Cl)B1OC(=O)CC(CC(=O)O)(C(=O)O)O1 (stereo unspecified) + NC1CC1c1ccc(-c2cccc(O)c2)cc1
- IC50 [1]: 1.8 nM
- IC50 [2]: 1.83 nM
- IC50 [3]: 1.84 nM
- IC50 [4]: 1.75 nM
- IC50 [5]: 1.55 nM
- viability, T/C [6]: 92.8%
- viability, T/C [7]: 104%
- viability, T/C [8]: 3.7%
- viability, T/C [9]: 0.43%
- viability, T/C [10]: 0.02%
- viability, T/C [11]: 0.13%
- viability, T/C [12]: 104%
- viability, T/C [13]: 102%
- viability, T/C [14]: 3.27%
- viability, T/C [15]: 1.25%
- viability, T/C [16]: 0.02%
- viability, T/C [17]: 0.1%
- viability, T/C [18]: 94.6%
- viability, T/C [19]: 108%
- viability, T/C [20]: 3.81%
- viability, T/C [21]: 1.65%
- viability, T/C [22]: 0.03%
- viability, T/C [23]: 0.11%
- viability, T/C [24]: 95%
- viability, T/C [25]: 94.6%
- viability, T/C [26]: 3.11%
- viability, T/C [27]: 1%
- viability, T/C [28]: 0.03%
- viability, T/C [29]: 0.1%
- viability, T/C [30]: 92%
- viability, T/C [31]: 78.9%
- viability, T/C [32]: 2.61%
- viability, T/C [33]: 0.2%
- viability, T/C [34]: 0.11%
- viability, T/C [35]: 0.17%

- IC50 (curve of compound): 1.55 nM and 1.88 nM
SMILES: CC(C)CC(NC(=O)CNC(=O)c1cc(Cl)ccc1Cl)B1OC(=O)CC(CC(=O)O)(C(=O)O)O1 (stereo unspecified)
- viability, T/C (compound 0.000316 µM): 105%
- viability, T/C (compound 0.001 µM): 76.8% and 109%
- viability, T/C (compound 0.00316 µM): 6.4% and 3.59%
- viability, T/C (compound 0.01 µM): 1.38% and 0.62%
- viability, T/C (compound 0.0316 µM): 0.11% and 0.19%
- viability, T/C (compound 0.1 µM): 0.17% and 0.19%

- IC50 (curve of compound): 0.538 nM and 0.61 nM
SMILES: CC(C)CC(NC(=O)C(Cc1ccccc1)NC(=O)c1cnccn1)B(O)O (stereo unspecified)
- viability, T/C (compound 0.000316 µM): 90.9% and 115%
- viability, T/C (compound 0.001 µM): 2.15% and 1.03%
- viability, T/C (compound 0.00316 µM): 0.11% and 0.13%
- viability, T/C (compound 0.01 µM): 0.1% and 0.12%
- viability, T/C (compound 0.0316 µM): 0.09% and 0.13%
- viability, T/C (compound 0.1 µM): 0.14% and 0.2%

SMILES: CC[C@@]1(O)C(=O)OCc2c1cc1n(c2=O)Cc2cc3c(CN(C)C)c(O)ccc3nc2-1 + NC1CC1c1ccc(-c2cccc(O)c2)cc1
- IC50 [1]: 8.59 nM
- IC50 [2]: 7.94 nM
- IC50 [3]: 7.85 nM
- IC50 [4]: 6.85 nM
- IC50 [5]: 6.35 nM
- viability, T/C [6]: 97.8%
- viability, T/C [7]: 102%
- viability, T/C [8]: 98.1%
- viability, T/C [9]: 42.7%
- viability, T/C [10]: 21.8%
- viability, T/C [11]: 19.4%
- viability, T/C [12]: 98.9%
- viability, T/C [13]: 102%
- viability, T/C [14]: 92.8%
- viability, T/C [15]: 39.1%
- viability, T/C [16]: 22.8%
- viability, T/C [17]: 19.4%
- viability, T/C [18]: 90.5%
- viability, T/C [19]: 94.6%
- viability, T/C [20]: 84.8%
- viability, T/C [21]: 40.5%
- viability, T/C [22]: 22.8%
- viability, T/C [23]: 18.8%
- viability, T/C [24]: 85.7%
- viability, T/C [25]: 90.3%
- viability, T/C [26]: 87.2%
- viability, T/C [27]: 31.8%
- viability, T/C [28]: 20.9%
- viability, T/C [29]: 18.6%
- viability, T/C [30]: 81.5%
- viability, T/C [31]: 97.3%
- viability, T/C [32]: 82.2%
- viability, T/C [33]: 28.9%
- viability, T/C [34]: 21.5%
- viability, T/C [35]: 16.3%

SMILES: CC(C)c1c(-c2ccccc2)nc2c(C#N)c[nH]n2c1=O + NC1CCC(NC2CC2c2ccccc2)CC1
- IC50 [1]: > 10000 nM
- IC50 [2]: > 10000 nM
- IC50 [3]: > 10000 nM
- IC50 [4]: > 10000 nM
- IC50 [5]: > 10000 nM
- viability, T/C [10]: 82.4%
- viability, T/C [11]: 88%
- viability, T/C [36]: 92.9%
- viability, T/C [37]: 87.7%
- viability, T/C [38]: 85.3%
- viability, T/C [39]: 74.7%
- viability, T/C [16]: 93.2%
- viability, T/C [17]: 85.3%
- viability, T/C [40]: 93.4%
- viability, T/C [41]: 83.3%
- viability, T/C [42]: 77.1%
- viability, T/C [43]: 74%
- viability, T/C [22]: 88.6%
- viability, T/C [23]: 92.2%
- viability, T/C [44]: 85.9%
- viability, T/C [45]: 86.7%
- viability, T/C [46]: 80.1%
- viability, T/C [47]: 75.3%
- viability, T/C [28]: 89.1%
- viability, T/C [29]: 80.4%
- viability, T/C [48]: 81.1%
- viability, T/C [49]: 77.1%
- viability, T/C [50]: 79.9%
- viability, T/C [51]: 80.2%
- viability, T/C [34]: 82.9%
- viability, T/C [35]: 91.7%
- viability, T/C [52]: 84.4%
- viability, T/C [53]: 74.6%
- viability, T/C [54]: 69.6%
- viability, T/C [55]: 73.4%

SMILES: CC1(C)CCC(CN2CCN(c3ccc(C(=O)NS(=O)(=O)c4ccc(NCC5CCOCC5)c([N+](=O)[O-])c4)c(Oc4cnc5[nH]ccc5c4)c3)CC2)=C(c2ccc(Cl)cc2)C1 + NC1CC1c1ccc(-c2cccc(O)c2)cc1
- IC50 [1]: 6250 nM
- IC50 [2]: 6320 nM
- IC50 [3]: 5810 nM
- IC50 [4]: 5770 nM
- IC50 [5]: 5480 nM
- viability, T/C [10]: 90.2%
- viability, T/C [11]: 104%
- viability, T/C [36]: 93.5%
- viability, T/C [37]: 94.5%
- viability, T/C [38]: 95.5%
- viability, T/C [39]: 18.6%
- viability, T/C [16]: 87%
- viability, T/C [17]: 101%
- viability, T/C [40]: 101%
- viability, T/C [41]: 103%
- viability, T/C [42]: 97.2%
- viability, T/C [43]: 18.6%
- viability, T/C [22]: 85.9%
- viability, T/C [23]: 92.1%
- viability, T/C [44]: 90.3%
- viability, T/C [45]: 91.5%
- viability, T/C [46]: 88.4%
- viability, T/C [47]: 15.8%
- viability, T/C [28]: 85.4%
- viability, T/C [29]: 87.3%
- viability, T/C [48]: 89.4%
- viability, T/C [49]: 91.1%
- viability, T/C [50]: 94.6%
- viability, T/C [51]: 13.8%
- viability, T/C [34]: 79.7%
- viability, T/C [35]: 82.9%
- viability, T/C [52]: 82.6%
- viability, T/C [53]: 82.5%
- viability, T/C [54]: 84.8%
- viability, T/C [55]: 14.5%
